{"source": "patent US20050143344A1", "about": "“Methods and compositions using immunomodulatory compounds for the treatment and management of central nervous system disorders or diseases” (priority 2003, published 2005)", "origin": "cited, not measured here", "key": {"[1]": {"conditions": "for conversion in acetone and other anhydrous systems: acetone / anhydrous solvent systems"}, "nigrostriatal neurons": {"system": "nigrostriatal neurons", "conditions": "lentiviral vector delivery"}}}
{"molecule": "Nc1cccc2c1CN(C1CCC(=O)NC1=O)C2=O", "note": "(stereo not drawn) [Form D, 3-(4-amino-1-oxo-1,3 dihydro-isoindol-2-yl)-piperidene-2,6-dione]", "values": [{"measurement": "conversion at higher relative humidities", "setting": "[1]", "result": "will typically convert to Form B"}]}
{"molecule": "Nc1cccc2c1CN(C1CCC(=O)NC1=O)C2=O", "note": "(stereo not drawn) [Form C, 3-(4-amino-1-oxo-1,3 dihydro-isoindol-2-yl)-piperidene-2,6-dione]", "values": [{"measurement": "conversion at higher relative humidities", "setting": "[1]", "result": "can convert to Form B"}]}
{"molecule": "Nc1cccc2c1CN(C1CCC(=O)NC1=O)C2=O", "note": "(stereo not drawn) [Form E, 3-(4-amino-1-oxo-1,3 dihydro-isoindol-2-yl)-piperidene-2,6-dione]", "values": [{"measurement": "conversion in THF solvent system", "setting": "[1]; THF solvent system", "result": "to Form G"}, {"measurement": "conversion upon heating (desolvation)", "setting": "[1]; about 125° C. for about five minutes", "result": "can convert to Form B"}, {"measurement": "conversion in acetone and other anhydrous systems", "setting": "[1]", "result": "can convert to Form C"}]}
{"molecule": "Nc1cccc2c1CN(C1CCC(=O)NC1=O)C2=O", "note": "(stereo not drawn) [Form B, 3-(4-amino-1-oxo-1,3 dihydro-isoindol-2-yl)-piperidene-2,6-dione]", "values": [{"measurement": "conversion upon heating", "setting": "[1]; 175° C. for about five minutes", "result": "can convert to Form F"}, {"measurement": "conversion in acetone and other anhydrous systems", "setting": "[1]", "result": "converts to other forms"}, {"measurement": "stability / conversion in aqueous solvent systems", "setting": "[1]; aqueous solvent systems", "result": "converts to Form E"}]}
{"molecule": "GDNF: glial cell line derived neurotrophic factor, delivered by lentiviral vectors to striatum and SN of rhesus monkeys (protein, UniProt P39905 78-211, looked up, lentiviral vector delivery, glial cell line derived neurotrophic factor, delivered by lentiviral vectors to striatum and SN of rhesus monkeys) Glial cell line-derived …: SPDKQMAVLPRRERNRQAAAANPENSRGKGRRGQRGKNRGCVLTAIHLNVTDLGLGYETKEELIFRYCSGSCDAAETTYDKILKNLSRNRRLVSDKVGQACCRPIAFDDDLSFLDDNLVYHILRKHSAKRCGCI", "values": [{"measurement": "motor deficits", "setting": "nigrostriatal neurons; MPTP treated monkeys", "result": "reversed"}, {"measurement": "dopaminergic function", "setting": "nigrostriatal neurons; aged monkeys", "result": "augmented"}, {"measurement": "functional deficits", "setting": "nigrostriatal neurons; monkeys treated with MPTP", "result": "reversed"}, {"measurement": "nigrostriatal degeneration", "setting": "nigrostriatal neurons; monkeys treated with MPTP", "result": "prevented"}]}
